Like-named read-outs stand apart in the source and are kept apart here.
Tests used:
[1] = test system: Candida albicans; experiment: Microplate dilution assay MIC/MLC; assay type: cell-based; conditions: for MIC < 10%: growth less than 10% of control; for MIC < 50%: growth less than 50% of control; for MLC: minimum lethal concentration
Experimental: (§1) The minimum inhibitory concentration (MIC) and the minimum lethal concentration (MLC) of the chemicals were determined using a microplate dilution assay. Quats were provided as aqueous solutions, while Triclosan and Chloroxylenol were provide as powders which were first dissolved at 5 weight percent in absolute ethanol. A two-fold serial dilution series of each test chemical was prepared in Trypticase Soy Broth at 20% of the standard concentration (TSB20) and in Sabouraud Dextrose Broth at 20% of the standard concentration (SDB20) in 96-well micro-titer plates. A total of 10 dilutions were prepared and four replicate tests were performed for each dilution. […] Control solutions containing only media were included for each plate. Suspensions of Staphylococcus aureus, Escherichia coli, and Candida albicans were prepared from one-day old agar plate cultures in Butterfields Phosphate Diluent to a concentration of approximately 10^7 to 10^8 cells per milliliter. Each test well was inoculated with the diluted culture suspensions at a concentration of 10^3 to 10^4 cells per well and then incubated at 32° C. with shaking at 150 rpm for approximately 24 hours, after which the optical density of each well was determined spectrophotometrically at 600 nm. Wells containing uninoculated media without test chemical were included in each plate as negative controls and, following inoculation, as positive controls.
(§2) Selected wells at or below the MIC were tested for MLC by spotting three microliters from each replicate well onto Trypticase Soy agar for S. aureus and E. coli, or Sabouraud Dextrose agar for C. albicans.

[2] = test system: Escherichia coli; experiment: Microplate dilution assay MIC/MLC; assay type: cell-based; conditions: for MIC < 10%: growth less than 10% of control, 24 hours, 32° C.; for MIC < 50%: growth less than 50% of control; for MLC: minimum lethal concentration
Experimental: as §1, §2

[3] = test system: Staphylococcus aureus; experiment: Microplate dilution assay MIC/MLC; assay type: cell-based; conditions: for MIC < 10%: growth less than 10% of control; for MIC < 50%: growth less than 50% of control; for MLC: minimum lethal concentration
Experimental: as §1, §2

[4] = Ready Biodegradability CO2 Evolution Test OECD 301B
Experimental: The biodegradability of the branched aldehyde intermediates of Example 2 (4-ethyl-2-methyloctanal) and Example 25 (2,4-diethyl-2-octenal) were determined by the Ready Biodegradability—CO2 Evolution Test—Degradation of test compound according to OECD Guidelines for Testing of Chemicals CO2 Evolution Test 301B.

[5] = Draves Wetting Test (ASTM D2281-68); assay type: physicochemical; conditions: 0.05 wt % (actives basis) in DI water; average of 3 measurements
Experimental: A 0.05 wt % (actives basis) solution of amine oxide in deionized (DI) water was used to determine the Draves wet-out time (WOT) in seconds. 0.75 g of surfactant was dispersed in 1,500 ml of DI water. The wet-out time (WOT) in seconds is recorded in Table 14 (average of 3 measurements). LAO is Lauramine oxide (linear hydrophobe), Sigma catalog number 40236.

[6] = Foam height, high shear (Waring blender); assay type: physicochemical
Experimental: A 0.05 wt % (actives basis) solution of the test surfactant was made in deionized water. 250 ml of the test solution was added the beaker of a Waring blender, capped, and then blended on High for 30 seconds and immediately transferred to a 1 L graduated cylinder. The total volume of foam plus liquid, as well as the liquid layer alone was recorded. The foam and liquid volumes were recorded again after 5 minutes.

[7] = test system: zein protein
Description: Amine oxides with linear and branched hydrophobes from Examples 65 and 66 were compared in a screen to predict mildness of surfactants. There is a correlation between the ability of a surfactant to denature a protein and the skin irritation potential of that surfactant. The relationship is believed to result from surfactant binding to proteins like keratin, followed by the denaturation of these proteins, leading to skin irritation. A common screening test involves measuring the amount of zein (a corn protein which is insoluble in water) solubilized by a surfactant solution, the Zein Solubilization Test (Moore et al., 2003 and references therein)
For the test, 0.0750 g of zein protein is transferred into a 1.5 mL centrifuge tube. To this 1.5 mL of 1% surfactant solution is added, mixed, and placed in a 30 C incubator with mild stirring for 30 minutes. After 30 minutes has elapsed, the tube is centrifuged for 30 min at 3600 rpm. The solution is filtered through a pre-weighed 8 micron filter paper, and then dried overnight in a 50° C. oven. The insoluble zein residue is then weighed and the wt % Zein dissolved is calculated using the equation below. Each solution is analyzed in triplicate. The Zein score is normalized to a standard included in each set of tests, in this case LAE10.
% zein dissolved=(total zein added−total zein after drying Total zein added)×100

[8] = Foaming of amine oxide added to commercial laundry liquid (Waring blender); assay type: physicochemical; design: Difference: unit: ml; conditions: for Difference: initial minus 5 min foam volume
Experimental: The surface foam volume and foam persistence of solutions of the amine oxides with linear and branched hydrophobes from Examples […] were compared. A commercial laundry liquid was diluted in deionized water according to the dosing instructions; 4.2 ml/L Persil Original. The diluted detergent was supplemented with 0%, 2%, 5% (based on wt laundry liquid) of LAO or Branched C12 AO, (2,4-diethyl-N,N-dimethyloctan-1-amine oxide, Example 66), and the solutions mixed briefly and used immediately. 250 ml of each test solution was added the beaker of a Waring blender, capped, and then blended on High for 30 seconds and immediately transferred to a 1 L graduated cylinder. The total volume of foam plus liquid, as well as the liquid layer alone was recorded. The foam and liquid volumes were recorded again after 5 minutes. All tests were performed in triplicate.

[9] = Solubility of N-alkyl-N-methylglucamines in MilliQ water and SLS/SDS solution; assay type: physicochemical; conditions: for Solubility in 10 wt % SLS / Solubility in pure MilliQ: heated to 80° C., ultrasonicated, cooled to room temperature; for Solubility in 10 wt % SLS: pH 10.8-11.1; for Solubility in 10 wt % SDS: pH 11.8-12.1; for Solubility in pure MilliQ: pH 9-9.5
Experimental: The solubility of three N-alkyl-N-methylglucamines (i.e., N-(2-ethyl-hexyl)-N-methylglucamine, N-decyl-N-methylglucamine, and N-(4-ethyl-2-methyloctyl)-N-methylglucamine) was investigated in pure MilliQ water and in a 10 wt % sodium lauryl sulfate (SLS) solution. The mixtures were heated to 80° C., ultrasonicated, and cooled to room temperature.

[10] = High-shear foaming of N-alkyl-N-methylglucamines in commercial blender; assay type: physicochemical; conditions: 1 wt % test substance in 10 wt % SDS, diluted to 0.05 wt % surfactant
Experimental: The high-shear foaming behavior of linear and branched N-alkyl-N glucamines was investigated, as this can have an impact on their performance in home care applications. […] The solutions were heated to 80° C., ultrasonicated for 1 h, and cooled to room temperature. Finally, the as-obtained solutions were diluted with MilliQ water to obtain a 0.05 wt % surfactant solution. In agreement with the literature on branched hydrophobes, the high-shear foaming tests performed in the commercial blender indicate that the linear N-decyl-N-methylglucamine (IC10 NMG) solution foams relatively more than its branched counterpart solution. For all solutions, the initial foam volume is between 40 and 53 mL. Lauramine oxide (LAO) appears to be foamier than the N-alkyl-N-methylglucamines.

## CCCCCCCCCCCC[N+](C)(C)Cc1ccccc1.[Cl-] [BAC-12 linear]
[1]
  MIC < 10%: 0.0016 Weight percent
  MIC < 50%: 0.00078 Weight percent
  MLC: 0.0016 Weight percent
[2]
  MIC < 10%: 0.00078 Weight percent
  MIC < 50%: 0.00078 Weight percent
  MLC: 0.00078 Weight percent
[3]
  MIC < 10%: 0.0002 Weight percent
  MIC < 50%: 0.0002 Weight percent
  MLC: 0.0002 Weight percent

## CCCCC(CC)CC(CC)C[N+](C)(C)Cc1ccccc1.[Cl-] (stereo not shown) [BAC-b12, N-benzyl-2,4-diethyl-N,N-dimethyloctan-1-aminium chloride]
[1]
  MIC < 10%: 0.0063 Weight percent
  MIC < 50%: 0.0063 Weight percent
  MLC: 0.0063 Weight percent
[2]
  MIC < 10%: 0.0063 Weight percent
  MIC < 50%: 0.0063 Weight percent
  MLC: 0.0063 Weight percent
[3]
  MIC < 10%: 0.00039 Weight percent
  MIC < 50%: 0.00039 Weight percent
  MLC: 0.00078 Weight percent

## Cc1cc(O)cc(C)c1Cl [Chloroxylenol]
[1]
  MIC < 10%: 0.0083 Weight percent
  MIC < 50%: 0.0083 Weight percent
  MLC: >0.0083 Weight percent
[2]
  MIC < 10%: >0.0083 Weight percent
  MIC < 50%: >0.0083 Weight percent
  MLC: >0.0083 Weight percent
[3]
  MIC < 10%: 0.0042 Weight percent
  MIC < 50%: 0.0042 Weight percent
  MLC: >0.0083 Weight percent

## CCCCC(CC)CC(C)C=O (stereo not shown) [Example 2, 4-ethyl-2-methyloctanal]
[4]; Day 0
  Biodegradation (%): 0%
[4]; Day 2
  Biodegradation (%): 0%
[4]; Day 6
  Biodegradation (%): 15%
[4]; Day 7
  Biodegradation (%): 21%
[4]; Day 9
  Biodegradation (%): 31%
[4]; Day 14
  Biodegradation (%): 47%
[4]; Day 19
  Biodegradation (%): 54%
[4]; Day 23
  Biodegradation (%): 56%
[4]; Day 28
  Biodegradation (%): 57%
[4]; Day 29 (first line)
  Biodegradation (%): 57%
[4]; Day 29 (second line)
  Biodegradation (%): 61%

## CCCCC(CC)CC(C=O)CC (stereo not shown) [Example 25, 2,4-diethyloctanal]
[4]; Day 0
  Biodegradation (%): 0%
[4]; Day 2
  Biodegradation (%): 0%
[4]; Day 6
  Biodegradation (%): 0%
[4]; Day 7
  Biodegradation (%): 9%
[4]; Day 9
  Biodegradation (%): 27%
[4]; Day 14
  Biodegradation (%): 48%
[4]; Day 19
  Biodegradation (%): 53%
[4]; Day 23
  Biodegradation (%): 53%
[4]; Day 28
  Biodegradation (%): 55%
[4]; Day 29 (first line)
  Biodegradation (%): 55%
[4]; Day 29 (second line)
  Biodegradation (%): 57%

## CCCCC(CC)CC(CC)C[N+](C)(C)[O-] (stereo not shown) [Example 66, 2,4-diethyl-N,N-dimethyloctan-1-amine oxide]
[5]
  Wet out time: >300 s
[6]; 0.05 wt % in deionized water, after 5 minutes
  Foam volume (ml) 5 min: 0 mL
[6]; 0.05 wt % in deionized water, blended on High 30 seconds
  Foam volume (ml) Initial: 370 mL
[6]; foam volume, initial to 5 min
  % decrease: 100%
[7]; corn, 30 min, 1 %
  Zein score - normalized to LAE10: 0.018
[8]; Persil + 2% additive
  Foam volume After 5 min: 303 mL
  Difference: 257
[8]; Persil + 5% additive
  Difference: 280
[8]; Persil Original 4.2 ml/L + 2% additive
  Initial foam volume: 560 mL

## CCCCC(CC)CN(C)C[C@H](O)[C@@H](O)[C@H](O)[C@H](O)CO (stereo partly shown) [N-(2-ethyl-hexyl)-N-methylglucamine, N-(2-ethylhexyl)-N-methylglucamine]
[9]
  Solubility in 10 wt % SLS: >1000 ppm
  Solubility in 10 wt % SDS: ≥1%

## CCCCC(CC)CC(C)CN(C)C[C@H](O)[C@@H](O)[C@H](O)[C@H](O)CO (stereo partly shown) [N-(4-ethyl-2-methyloctyl)-N-methylglucamine]
[9]
  Solubility in pure MilliQ: <1000 ppm
  Solubility in 10 wt % SLS: >1000 ppm
  Solubility in 10 wt % SDS: ≥1%

## CCCCCCCCCCN(C)C[C@H](O)[C@@H](O)[C@H](O)[C@H](O)CO [N-decyl-N-methylglucamine]
[9]
  Solubility in pure MilliQ: <1000 ppm
  Solubility in 10 wt % SLS: >1000 ppm
  Solubility in 10 wt % SDS: ≥1%
[10]
  Foam volume after 5 seconds stirring at speed 1: 50 mL
  Foam volume after 5 minutes settling: 49 mL

## Oc1cc(Cl)ccc1Oc1ccc(Cl)cc1Cl [Triclosan]
[1]
  MIC < 10%: 0.0016 Weight percent
  MIC < 50%: 0.0016 Weight percent
  MLC: >0.0016 Weight percent
[2]
  MIC < 10%: 0.00010 Weight percent
  MIC < 50%: 0.00010 Weight percent
  MLC: 0.00010 Weight percent
[3]
  MIC < 10%: 0.00002 Weight percent
  MIC < 50%: 0.00002 Weight percent
  MLC: 0.00003 Weight percent

## CCCCC(CC)CN(C)C[C@H](O)[C@@H](O)[C@H](O)[C@H](O)CO (stereo partly shown) [bC10 NMG]
[10]
  Foam volume after 5 seconds stirring at speed 1: 40 mL
  Foam volume after 5 minutes settling: 38 mL

## CC(=O)[O-].[Na+] [sodium acetate, reference compound]
[4]; Day 0
  Biodegradation (%): 0%
[4]; Day 2
  Biodegradation (%): 32%
[4]; Day 6
  Biodegradation (%): 52%
[4]; Day 7
  Biodegradation (%): 54%
[4]; Day 9
  Biodegradation (%): 60%
[4]; Day 14
  Biodegradation (%): 66%
[4]; Day 19
  Biodegradation (%): 69%
[4]; Day 23
  Biodegradation (%): 71%
[4]; Day 28
  Biodegradation (%): 72%
[4]; Day 29 (first line)
  Biodegradation (%): 74%
[4]; Day 29 (second line)
  Biodegradation (%): 78%

## Sodium lauryl ether sulfate [SLES]
[7]
  Zein score - normalized to LAE10: 3.488

From patent US20190218170A1, “BRANCHED TRIALKYLAMINE PRECURSORS, INTERMEDIATES, PRODUCTS MADE THEREFROM AND PROCESSES OF MANUFACTURE” (priority 2018, published 2019)
